# Laboratory results published in patent US20240299484A1, “DILEUCINE COMPOSITIONS AND METHODS OF USE THEREOF” (Ingenious Ingredients, LP, priority 2023, published 2024).
# Marks after values point to notes of the source that are not given here.
# System: not listed separately
# Assay: Treadmill exercise / endurance test
# Type: in vivo, Swiss Albino mice
# Parameters: Percentage Increase over control (number of shocks) / Percentage Increase over control (time on shock zone) / Percentage Increase over control (distance travelled): concentration or dose not given beside the values
# Settings: Day −0 (baseline), mice, n = 8
# Method: (§1) Eight 8-week-old male Swiss Albino mice per experimental group were housed in an animal room at a constant temperature (22±3° C.) and humidity (30%-70%) under a 12:12 h light-dark cycle with standard laboratory diet (Purina 5L79, Rat and Mouse 18% protein; PMI Nutrition International, Brentwood, MO, USA). Distilled water was provided ad libitum. All animal experiments were reviewed and approved by the Institutional Animal Ethical Committee (IAEC) of Radiant Research Services Pvt. Ltd (Bangalore, India). All research was conducted in accordance with the guidelines of the committee for the purpose of control and supervision of experiments on animals (CPCSEA Registration Number-1803/PO/RcBi/S/2015/CPCSEA).
# (§2) After one week of acclimation, the animals were randomly divided by body weight into different groups (n=8 per group in each test) for oral treatment once a day, at approximately same time each day (+1 hour), for 28 consecutive days: (1) vehicle control; (2) paraxanthine (3) dileucine; (4) paraxanthine+dileucine; (5) L-arginine; (6) L-arginine+dileucine; (7) L-citrulline; and (8) L-citrulline+dileucine. The dose administered to the mice was calculated using US Food and Drug Administration for human equivalence doses (HED), assuming a human weight of 60 kg. The following HED were used in this study: 2,000 mg dileucine (RAMPS™, Ingenious Ingredients, L.P., Lewisville, TX, USA; mouse 411 mg/kg bw), 100 mg paraxanthine, (ENFINITY™, Ingenious Ingredients, L.P Lewisville, TX, USA; mouse dose: 20.5 mg/kg bw/day); 3,000 mg L-arginine (Nanjing Nutrabuilding Bio-tech Co., LTD., No. 270 Jiqingmen Strect, Suning Huigu, Building E6, Room 2105, Nanjing, China 210017; mouse 616.55 mg/kg bw), 3,000 mg L-citrulline (Nanjing Nutrabuilding Bio-tech Co., LTD., No. 270 Jiqingmen Street, Suning Huigu, Building E6, Room 2105, Nanjing, China 210017; mouse 616.55 mg/kg bw). 0.5% Carboxy Methyl Cellulose sodium was used as vehicle and the test item formulations were prepared daily. Dosing was conducted via oral gavage using disposable polypropylene syringes with sterilized stainless steel gavage tubes. The food intake and water consumption were monitored daily, and BW was recorded weekly. The last dose on day 28 was given 1 hour prior to testing.
# During the treatment period, exercise training was completed using a motorized treadmill (Exer 3/6, Columbus Instruments international, OH, USA) at a moderate intensity of 20 cm/sec as maximal running speed, an incline of ten degrees and a shock intensity of 0.2 mA, for ten minutes. The speed of the treadmill was manually adjusted by increasing the belt speed by 5 cm/sec every two minutes throughout the total duration of ten minutes. All animals were adapted to this procedure daily 60 minutes after dosing for five days in a week during the treatment period.
# On 28th day of each respective treatment, all animals were subjected to a muscle endurance test. Muscle endurance was accomplished on a motorized treadmill at a low to moderate intensity of 5-50 cm/sec as maximal running speed, an incline of ten degrees and a shock intensity of 0.2 mA, with the belt speed being increased by 5 cm/sec every two minutes until it reaches 50 cm/sec. Animals were subjected to the treadmill test until exhaustion. Distance traveled (m) was measured as a marker of exercise performance.
Structure (SMILES),Distance travelled (m) by mice during treadmill exercise Day −0,No. of shocks during treadmill exercise Day −0,Time spent on shock zone during excercise [sec] Day −0
"CC(C)C[C@H](NC(=O)[C@@H](N)CC(C)C)C(=O)O [Dileucine, L-Leucyl-L-leucine]",38.88 m,27.63,91 s
"N=C(N)NCCC[C@H](N)C(=O)O [L-Arginine, L-arginine]",39.13 m,30.38,90 s

# Same assay, conditions: Day −28, oral once a day for 28 days
Structure (SMILES),No. of shocks during treadmill exercise Day −28,Time spent on shock zone during excercise [sec] Day −28
"CC(C)C[C@H](NC(=O)[C@@H](N)CC(C)C)C(=O)O [Dileucine, L-Leucyl-L-leucine]",13***,31.88*** sec
"N=C(N)NCCC[C@H](N)C(=O)O [L-Arginine, L-arginine]",16.75***,35.13*** sec

# Same assay, conditions: Day −28, until exhaustion, oral once a day for 28 days
row,Structure (SMILES),Distance travelled (m) by mice during treadmill exercise Day −28
1,"CC(C)C[C@H](NC(=O)[C@@H](N)CC(C)C)C(=O)O [Dileucine, L-Leucyl-L-leucine]",328.5*** m
2,"N=C(N)NCCC[C@H](N)C(=O)O [L-Arginine, L-arginine]",314.25*** m

# Same assay, conditions: Day −28 minus Day −0
Structure (SMILES),Distance Increase over Day −0,No of Shocks Decrease over Day −0,Time spent on shock zone over Day −0
"CC(C)C[C@H](NC(=O)[C@@H](N)CC(C)C)C(=O)O [Dileucine, L-Leucyl-L-leucine]",289.62 m,−14.63,-59.12 s
"N=C(N)NCCC[C@H](N)C(=O)O [L-Arginine, L-arginine]",275.12 m,−13.63,-54.87 s

# Same assay, conditions: change vs Exercise Control, 28 days
row,Structure (SMILES),Percentage Increase over control (time on shock zone)
1,"CC(C)C[C@H](NC(=O)[C@@H](N)CC(C)C)C(=O)O [Dileucine, L-Leucyl-L-leucine]",94%
2,"N=C(N)NCCC[C@H](N)C(=O)O [L-Arginine, L-arginine]",80%

# Same assay, conditions: decrease in shocks vs Exercise Control, 28 days
row,Structure (SMILES),Percentage Increase over control (number of shocks)
1,"CC(C)C[C@H](NC(=O)[C@@H](N)CC(C)C)C(=O)O [Dileucine, L-Leucyl-L-leucine]",86%
2,"N=C(N)NCCC[C@H](N)C(=O)O [L-Arginine, L-arginine]",73%

# Same assay, conditions: increase vs Exercise Control, 28 days
row,Structure (SMILES),Percentage Increase over control (distance travelled)
1,"CC(C)C[C@H](NC(=O)[C@@H](N)CC(C)C)C(=O)O [Dileucine, L-Leucyl-L-leucine]",109%
2,"N=C(N)NCCC[C@H](N)C(=O)O [L-Arginine, L-arginine]",98%

# System: total cholesterol (TC)
# Assay: Blood lipids: total cholesterol
# Type: in vivo, Swiss Albino mice
# Settings: after 28 days of supplementation, mice, n = 8
# Method: as §1, §2
# (§3) All animals were euthanized by 95% CO2 after 28 days of following their assigned treatment. Blood was collected immediately after euthanization by the retro-orbital route and was immediately centrifuged at 1500×g for 10 min at 4° C. before having all serum transferred into cryogenic tubes and stored at −80° C.
# (§4) Serum and plasma samples were separated by centrifuging the blood at 8000 rpm for 10 mins and analyze the below mentioned biomarkers, Biomarkers: TC, TG, LDL and HDL, CRP, Serum lactate, Ammonia, Glucose, NO, IL-2, IL-6, IL-10. Blood was collected in EDTA tubes for below mentioned biomarkers, Immune health Biomarkers (T helper subsets): TH1, TH2, TH17, Tfh, iTreg.
row,Structure (SMILES),TC
1,"CC(C)C[C@H](NC(=O)[C@@H](N)CC(C)C)C(=O)O [Dileucine, L-Leucyl-L-leucine]",93.3 mg/dL
2,"N=C(N)NCCC[C@H](N)C(=O)O [L-Arginine, L-arginine]",95.43 mg/dL

# Same assay, conditions: vs Exercise Control, 28 days
row,Structure (SMILES),TC Change over control [%]
1,"CC(C)C[C@H](NC(=O)[C@@H](N)CC(C)C)C(=O)O [Dileucine, L-Leucyl-L-leucine]",−6%
2,"N=C(N)NCCC[C@H](N)C(=O)O [L-Arginine, L-arginine]",−5%

# System: triglycerides (TG)
# Assay: Blood lipids: triglycerides
# Type: in vivo, Swiss Albino mice
# Settings: after 28 days of supplementation, mice, n = 8
# Method: as §1, §2, §3, §4
row,Structure (SMILES),TG
1,"CC(C)C[C@H](NC(=O)[C@@H](N)CC(C)C)C(=O)O [Dileucine, L-Leucyl-L-leucine]",92.66 mg/dL
2,"N=C(N)NCCC[C@H](N)C(=O)O [L-Arginine, L-arginine]",94.1 mg/dL

# Same assay, conditions: vs Exercise Control, 28 days
row,Structure (SMILES),TG Change over control [%]
1,"CC(C)C[C@H](NC(=O)[C@@H](N)CC(C)C)C(=O)O [Dileucine, L-Leucyl-L-leucine]",−3%
2,"N=C(N)NCCC[C@H](N)C(=O)O [L-Arginine, L-arginine]",−2%

# System: TH1
# Assay: Immune health biomarkers (T helper subsets): TH1
# Type: in vivo, Swiss Albino mice
# Settings: T helper subset in blood after 28 days, mice, n = 8
# Method: PMI Nutrition International, Brentwood, MO, USA). Distilled water was provided ad libitum. All animal experiments were reviewed and approved by the Institutional Animal Ethical Committee (IAEC) of Radiant Research Services Pvt. Ltd (Bangalore, India). All research was conducted in accordance with the guidelines of the committee for the purpose of control and supervision of experiments on animals (CPCSEA Registration Number-1803/PO/[…]). […] (1) vehicle control; […] (4) paraxanthine+dileucine; […] The dose administered to the mice was calculated using US Food and Drug Administration for human equivalence doses (HED), assuming a human weight of 60 kg. […] Dosing was conducted via oral gavage using disposable polypropylene syringes with sterilized stainless steel gavage tubes. The food intake and water consumption were monitored daily, and BW was recorded weekly. The last dose on day 28 was given 1 hour prior to testing. Serum and plasma samples were separated by centrifuging the blood at 8000 rpm for 10 mins and analyze the below mentioned biomarkers, Biomarkers: TC, TG, LDL and HDL, CRP, Serum lactate, Ammonia, Glucose, NO, IL-2, IL-6, IL-10. Blood was collected in EDTA tubes for below mentioned biomarkers, Immune health Biomarkers (T helper subsets): […]
row,Structure (SMILES),TH1(%)
1,"CC(C)C[C@H](NC(=O)[C@@H](N)CC(C)C)C(=O)O [Dileucine, L-Leucyl-L-leucine]",58.86*** %
2,"N=C(N)NCCC[C@H](N)C(=O)O [L-Arginine, L-arginine]",53.66*** %

# Same assay, conditions: vs Exercise Control, 28 days
row,Structure (SMILES),TH1 Change over control [%]
1,"CC(C)C[C@H](NC(=O)[C@@H](N)CC(C)C)C(=O)O [Dileucine, L-Leucyl-L-leucine]",−37%
2,"N=C(N)NCCC[C@H](N)C(=O)O [L-Arginine, L-arginine]",−43%

# System: iTreg
# Assay: Immune health biomarkers (T helper subsets): iTreg
# Type: in vivo, Swiss Albino mice
# Settings: T helper subset in blood after 28 days, mice, n = 8
# Method: as §1, §2, §4
Structure (SMILES),iTreg(%) (mg/L),iTreg(%)
"CC(C)C[C@H](NC(=O)[C@@H](N)CC(C)C)C(=O)O [Dileucine, L-Leucyl-L-leucine]",18.68*** %,
"N=C(N)NCCC[C@H](N)C(=O)O [L-Arginine, L-arginine]",,35.86*** %

# Same assay, conditions: vs Exercise Control, 28 days
row,Structure (SMILES),iTreg Change over control [%]
1,"CC(C)C[C@H](NC(=O)[C@@H](N)CC(C)C)C(=O)O [Dileucine, L-Leucyl-L-leucine]",−66%
2,"N=C(N)NCCC[C@H](N)C(=O)O [L-Arginine, L-arginine]",−34%
